# Experimental data taken from patent US9371342B2, “Isoprene oligomer, polyisoprene, processes for producing these materials, rubber composition, and pneumatic tire” (priority 2010, dated 2016).
# Experiments:
# [1] = molecular target: T1, Sulfolobus acidocaldarius-derived geranylgeranyl diphosphate synthase (Sulfolobus acidocaldarius, UniProt P39464); assay: Relative activity of geranylgeranyl diphosphate synthase on initiating substrates; type: biochemical; conditions: 12.5 μM initiating substrate, pH 5.8, 1 hour, 55° C.
# T1 construct: made in house; host or cells: E. coli BL21 (DE3)
# T1 sequence (P39464 whole entry): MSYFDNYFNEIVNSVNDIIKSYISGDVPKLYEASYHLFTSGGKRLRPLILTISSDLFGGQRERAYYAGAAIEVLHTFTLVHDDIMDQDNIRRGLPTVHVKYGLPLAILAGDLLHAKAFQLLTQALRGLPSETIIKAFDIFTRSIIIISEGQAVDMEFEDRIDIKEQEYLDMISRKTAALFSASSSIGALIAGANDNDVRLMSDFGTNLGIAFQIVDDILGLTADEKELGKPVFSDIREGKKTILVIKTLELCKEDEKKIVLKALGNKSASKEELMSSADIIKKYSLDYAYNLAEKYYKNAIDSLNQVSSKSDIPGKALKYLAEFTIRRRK
# Experimental: Likewise, reaction was performed under conditions shown below using Sulfolobus acidocaldarius-derived geranylgeranyl diphosphate synthase and each of the initiating substrates 1 to 4, the compound represented by the formula (B), the compound represented by the formula (C), the compound represented by the formula (G), the compound represented by the formula (K), the compound represented by the formula (F), the compound represented by the formula (I), the compound represented by the formula (Q), farnesyl diphosphate (FPP), and geranyl diphosphate (GPP). The results were indicated in Tables 12 and 13 by the relative activity of the enzyme on the initiating substrates 1 to 4, the compound represented by the formula (B), the compound represented by the formula (C), the compound represented by the formula (G), the compound represented by the formula (K), the compound represented by the formula (F), the compound represented by the formula (I), and the compound represented by the formula (QO) with the activity of the enzyme on farnesyl diphosphate or geranyl diphosphate as 100.
# (§1) After the reaction, liquid scintillation counting and TLC quantification were performed to measure the activity of the enzyme on each initiating substrate.
# [2] = molecular target: T2, Micrococcus luteus B-P 26-derived undecaprenyl diphosphate synthase (wild-type enzyme) (Micrococcus luteus, UniProt O82827); assay: Relative activity of wild-type undecaprenyl diphosphate synthase on initiating substrates; type: biochemical; conditions: activity of the enzyme on farnesyl diphosphate as 100; 12.5 μM initiating substrate, pH 7.5, 1 hour, 37° C.
# T2 construct: made in house; host or cells: E. coli; plasmid pET22b/MLU-UPS
# T2 sequence (O82827 whole entry): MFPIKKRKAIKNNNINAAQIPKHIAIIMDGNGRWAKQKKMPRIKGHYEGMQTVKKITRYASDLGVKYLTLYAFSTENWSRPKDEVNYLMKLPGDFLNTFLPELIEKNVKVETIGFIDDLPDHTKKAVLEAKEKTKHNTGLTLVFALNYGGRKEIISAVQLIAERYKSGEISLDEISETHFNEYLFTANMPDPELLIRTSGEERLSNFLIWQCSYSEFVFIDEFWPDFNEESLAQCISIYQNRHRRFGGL
# Experimental: (§2) Reaction was performed under conditions shown below using each of the initiating substrates prepared in Production Examples 1 to 11 or farnesyl diphosphate. The activity of each variant enzyme on each initiating substrate was indicated by index with the activity of the wild-type enzyme (Micrococcus luteus B-P 26-derived undecaprenyl diphosphate synthase) as 100.
# (§3) After the reaction, liquid scintillation counting and TLC quantification were performed to measure the activity of each enzyme.
# Next, reaction was performed under conditions shown below using Micrococcus luteus B-P 26-derived undecaprenyl diphosphate synthase as an enzyme and each of the initiating substrates 1 to 4, the compound represented by the formula (B), the compound represented by the formula (C), the compound represented by the formula (G), the compound represented by the formula (K), and farnesyl diphosphate (FPP). The results were indicated in Table 10 by the relative activity of the enzyme on the initiating substrates 1 to 4, the compound represented by the formula (B), the compound represented by the formula (C), the compound represented by the formula (G), and the compound represented by the formula (K) with the activity of the enzyme on farnesyl diphosphate as 100.
# as §1
# [3] = molecular target: T3, variant enzyme F95W of undecaprenyl diphosphate synthase (Micrococcus luteus, UniProt O82827, F95W); assay: Relative activity of variant enzyme F95W on initiating substrates; type: biochemical, Micrococcus luteus B-P 26; conditions: index, activity of wild-type enzyme on same initiating substrate as 100; 12.5 μM initiating substrate, 1 hour, 37° C.
# T3 construct: made in house; host or cells: E. coli; site-directed mutagenesis of pET22b/MLU-UPS
# T3 sequence (O82827 whole entry F95W): as the sequence (O82827 whole entry) above, with F95W counted along it
# Experimental: as §2, §3
# [4] = molecular target: T4, variant enzyme L91K of undecaprenyl diphosphate synthase (Micrococcus luteus, UniProt O82827, L91K); assay: Relative activity of variant enzyme L91K on initiating substrates; type: biochemical, Micrococcus luteus B-P 26; conditions: index, activity of wild-type enzyme on same initiating substrate as 100; 12.5 μM initiating substrate, 1 hour, 37° C.
# T4 construct: made in house; host or cells: E. coli; site-directed mutagenesis of pET22b/MLU-UPS
# T4 sequence (O82827 whole entry L91K): as the sequence (O82827 whole entry) above, with L91K counted along it
# Experimental: as §2, §3
# [5] = molecular target: T5, variant enzyme F95A of undecaprenyl diphosphate synthase (Micrococcus luteus, UniProt O82827, F95A); assay: Relative activity of variant enzyme F95A on initiating substrates; type: biochemical, Micrococcus luteus B-P 26; conditions: index, activity of wild-type enzyme on same initiating substrate as 100; 12.5 μM initiating substrate, 1 hour, 37° C.
# T5 construct: made in house; host or cells: E. coli; site-directed mutagenesis of pET22b/MLU-UPS
# T5 sequence (O82827 whole entry F95A): as the sequence (O82827 whole entry) above, with F95A counted along it
# Experimental: as §2, §3
# [6] = molecular target: T6, variant enzyme L91G of undecaprenyl diphosphate synthase (Micrococcus luteus, UniProt O82827, L91G); assay: Relative activity of variant enzyme L91G on initiating substrates; type: biochemical, Micrococcus luteus B-P 26; conditions: index, activity of wild-type enzyme on same initiating substrate as 100; 12.5 μM initiating substrate, 1 hour, 37° C.
# T6 construct: made in house; host or cells: E. coli; site-directed mutagenesis of pET22b/MLU-UPS
# T6 sequence (O82827 whole entry L91G): as the sequence (O82827 whole entry) above, with L91G counted along it
# Experimental: as §2, §3
# [7] = molecular target: T7, variant enzyme N31A of undecaprenyl diphosphate synthase (Micrococcus luteus, UniProt O82827, N31A); assay: Relative activity of variant enzyme N31A on initiating substrates; type: biochemical, Micrococcus luteus B-P 26; conditions: index, activity of wild-type enzyme on same initiating substrate as 100; 12.5 μM initiating substrate, 1 hour, 37° C.
# T7 construct: made in house; host or cells: E. coli; site-directed mutagenesis of pET22b/MLU-UPS
# T7 sequence (O82827 whole entry N31A): as the sequence (O82827 whole entry) above, with N31A counted along it
# Experimental: as §2, §3
# [8] = molecular target: T8, variant enzyme L91D of undecaprenyl diphosphate synthase (Micrococcus luteus, UniProt O82827, L91D); assay: Relative activity of variant enzyme L91D on initiating substrates; type: biochemical, Micrococcus luteus B-P 26; conditions: index, activity of wild-type enzyme on same initiating substrate as 100; 12.5 μM initiating substrate, 1 hour, 37° C.
# T8 construct: made in house; host or cells: E. coli; site-directed mutagenesis of pET22b/MLU-UPS
# T8 sequence (O82827 whole entry L91D): as the sequence (O82827 whole entry) above, with L91D counted along it
# Experimental: as §2, §3
# [9] = molecular target: T9, variant enzyme N77A of undecaprenyl diphosphate synthase (Micrococcus luteus, UniProt O82827, N77A); assay: Relative activity of variant enzyme N77A on initiating substrates; type: biochemical, Micrococcus luteus B-P 26; conditions: index, activity of wild-type enzyme on same initiating substrate as 100; 12.5 μM initiating substrate, 1 hour, 37° C.
# T9 construct: made in house; host or cells: E. coli; site-directed mutagenesis of pET22b/MLU-UPS
# T9 sequence (O82827 whole entry N77A): as the sequence (O82827 whole entry) above, with N77A counted along it
# Experimental: as §2, §3
# [10] = molecular target: T10, variant enzyme L91N of undecaprenyl diphosphate synthase (Micrococcus luteus, UniProt O82827, L91N); assay: Relative activity of variant enzyme L91N on initiating substrates; type: biochemical, Micrococcus luteus B-P 26; conditions: index, activity of wild-type enzyme on same initiating substrate as 100; 12.5 μM initiating substrate, 1 hour, 37° C.
# T10 construct: made in house; host or cells: E. coli; site-directed mutagenesis of pET22b/MLU-UPS
# T10 sequence (O82827 whole entry L91N): as the sequence (O82827 whole entry) above, with L91N counted along it
# Experimental: as §2, §3
# [11] = molecular target: T11, variant enzyme N31Q of undecaprenyl diphosphate synthase (Micrococcus luteus, UniProt O82827, N31Q); assay: Relative activity of variant enzyme N31Q on initiating substrates; type: biochemical, Micrococcus luteus B-P 26; conditions: index, activity of wild-type enzyme on same initiating substrate as 100; 12.5 μM initiating substrate, 1 hour, 37° C.
# T11 construct: made in house; host or cells: E. coli; site-directed mutagenesis of pET22b/MLU-UPS
# T11 sequence (O82827 whole entry N31Q): as the sequence (O82827 whole entry) above, with N31Q counted along it
# Experimental: as §2, §3
# [12] = molecular target: T12, variant enzyme N77Q of undecaprenyl diphosphate synthase (Micrococcus luteus, UniProt O82827, N77Q); assay: Relative activity of variant enzyme N77Q on initiating substrates; type: biochemical, Micrococcus luteus B-P 26; conditions: index, activity of wild-type enzyme on same initiating substrate as 100; 12.5 μM initiating substrate, 1 hour, 37° C.
# T12 construct: made in house; host or cells: E. coli; site-directed mutagenesis of pET22b/MLU-UPS
# T12 sequence (O82827 whole entry N77Q): as the sequence (O82827 whole entry) above, with N77Q counted along it
# Experimental: as §2, §3
# [13] = molecular target: T13, Bacillus stearothermophilus-derived farnesyl diphosphate synthase (Geobacillus stearothermophilus, UniProt Q08291); assay: Relative activity of farnesyl diphosphate synthase on initiating substrates; type: biochemical; conditions: activity of the enzyme on geranyl diphosphate as 100; 12.5 μM initiating substrate, pH 8.5, 1 hour, 55° C.
# T13 construct: made in house; host or cells: E. coli BL21 (DE3)
# T13 sequence (Q08291 whole entry): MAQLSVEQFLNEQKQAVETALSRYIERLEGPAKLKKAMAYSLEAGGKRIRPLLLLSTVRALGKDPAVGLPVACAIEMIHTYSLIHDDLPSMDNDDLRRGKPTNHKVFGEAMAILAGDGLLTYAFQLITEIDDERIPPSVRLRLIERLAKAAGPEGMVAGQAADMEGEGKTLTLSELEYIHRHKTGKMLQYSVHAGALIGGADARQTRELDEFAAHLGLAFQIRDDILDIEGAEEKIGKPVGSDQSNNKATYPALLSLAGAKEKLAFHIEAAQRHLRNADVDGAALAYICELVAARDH
# Experimental: Reaction was performed under conditions shown below using the obtained Bacillus stearothermophilus-derived farnesyl diphosphate synthase and each of the initiating substrates 1 to 4, the compound represented by the formula (F), the compound represented by the formula (I), the compound represented by the formula (QO), and geranyl diphosphate (GPP) whose structure is shown below. The results were indicated in Table 11 by the relative activity of the enzyme on the initiating substrates 1 to 4, the compound represented by the formula (F), the compound represented by the formula (I), and the compound represented by the formula (Q) with the activity of the enzyme on geranyl diphosphate as 100.
# as §1
# [14] = activity of the enzyme on farnesyl diphosphate as 100
# [15] = activity of the enzyme on geranyl diphosphate as 100
Compound,"Relative activity (%) [1, 14]",Relative activity (%) [2],Relative activity [3],Relative activity [4],Relative activity [5],Relative activity [6],Relative activity [7],Relative activity [8],Relative activity [9],Relative activity [10],Relative activity [11],Relative activity [12],"Relative activity (%) [1, 15]",Relative activity (%) [13]
7-acetyl-7-aza-3-methyl-dodeca-(2E)-dienyl diphosphate [Compound of formula (K)],38.6%,40.6%,148,112,136,–,–,–,–,–,–,–,–,–
"CCCCC(OC)/C(C)=C/CC/C(C)=C/COP(=O)(O)OP(=O)(O)O (stereo not drawn) [Compound of formula (B), 8-methoxy-3,7-dimethyl-dodeca-(2E,6E)-dienyl diphosphate]",70.6%,68.4%,140,156,128,149,116,231,319,–,–,–,–,–
"CCCCC(O)/C(C)=C/CC/C(C)=C/COP(=O)(O)OP(=O)(O)O (stereo not drawn) [Compound of formula (C), 8-hydroxy-3,7-dimethyl-dodeca-(2E,6E)-dienyl diphosphate]",37.3%,74.8%,–,130,–,146,111,155,234,108,–,–,–,–
"CC[C@H](O)CC/C(C)=C/CC/C(C)=C/COP(=O)(O)OP(=O)(O)O [Compound of formula (D), (10S)-hydroxy-3,7-dimethyl-dodeca-(2E,6E)-dienyl diphosphate]",–,–,120,101,–,134,179,125,208,103,104,124,–,–
"CC[C@@H](O)CC/C(C)=C/CC/C(C)=C/COP(=O)(O)OP(=O)(O)O [Compound of formula (E), (10R)-hydroxy-3,7-dimethyl-dodeca-(2E,6E)-dienyl diphosphate]",–,–,114,163,120,170,222,320,396,271,210,194,–,–
"COCOC/C(C)=C/CC/C(C)=C/COP(=O)(O)OP(=O)(O)O [Compound of formula (H), 8-methoxymethoxy-3,7-dimethyl-octa-(2E,6E)-dienyl diphosphate]",–,–,–,–,–,–,152,–,162,–,110,–,–,–
"CCCSC/C(C)=C/CC/C(C)=C/COP(=O)(O)OP(=O)(O)O [Compound of formula (M), 8-n-propylthio-3,7-dimethyl-octa-(2E,6E)-dienyl diphosphate]",–,–,–,112,–,–,149,123,127,139,101,–,–,–
"C/C(=C\COP(=O)(O)OP(=O)(O)O)CC/C=C(\C)COCc1ccccc1 [Compound of formula (N), 8-benzyloxy-3,7-dimethyl-octa-(2E,6E)-dienyl diphosphate]",–,–,147,–,132,–,–,–,112,–,–,133,–,–
"C/C(=C\COP(=O)(O)OP(=O)(O)O)CC/C=C(\C)CO[Si](C)(C)C(C)(C)C [Compound of formula (P), 8-[(tert-butyldimethylsilyl)oxy]-3,7-dimethyl-octa-(2E,6E)-dienyl diphosphate]",–,–,130,–,104,104,–,112,–,–,–,–,–,–
"CCC(O)CC/C(C)=C/CC/C(C)=C/COP(=O)(O)OP(=O)(O)O [Compound of formula (R), 10-hydroxy-3,7-dimethyl-dodeca-(2E,6E)-dienyl diphosphate]",–,–,121,165,140,110,200,230,254,137,146,156,–,–
"CCC(CC/C(C)=C/CC/C(C)=C/COP(=O)(O)OP(=O)(O)O)C(C)=O [Compound of formula (S), 10-acetyl-3,7-dimethyl-dodeca-(2E,6E)-dienyl diphosphate]",–,–,130,147,163,130,116,227,–,–,–,–,–,–
"C/C=C/COP(=O)(O)OP(=O)(O)O [Initiating substrate 1, 2E-butenyl diphosphate]",2.3%,0.3%,–,–,–,–,–,–,–,–,–,–,0.4%,1.4%
"CC(C)=CCC/C=C/COP(=O)(O)OP(=O)(O)O [Initiating substrate 2, 7-methyl-octa-2E,6E-dienyl diphosphate]",2.5%,0.6%,–,–,–,–,–,–,–,–,–,–,0.4%,3.2%
"CC(C)=CCC/C(C)=C/CC/C=C/COP(=O)(O)OP(=O)(O)O [Initiating substrate 3, 7,11-dimethyl-dodeca-2E,6E,10E-trienyl diphosphate]",3.9%,1.2%,–,–,–,–,–,–,–,–,–,–,0.6%,2.1%
"CC(C)=CCC/C(C)=C/CC/C(C)=C/CC/C=C/COP(=O)(O)OP(=O)(O)O [Initiating substrate 4, 7,11,15-trimethyl-hexadeca-2E,6E,10E,14E-tetraenyl diphosphate]",1.4%,5.9%,–,–,–,–,–,–,–,–,–,–,0.8%,0.7%
